We go through 6 compounds from patent US9504669B2, “Spliceostatin analogs and methods for their preparation” (PFIZER INC., priority 2012, dated 2016).

Common to all, as to type: cell-based
In assay [1] the test system is N87 (gastric cancer) cells. In words: In vitro cell assay (MTS cell viability), N87. Particulars: free compounds (natural products and synthetic analogs), cell viability 96 hours after treatment. Here is the method:
(§1) Target expressing (BT474 (breast cancer), N87 (gastric cancer), HCC1954 (breast cancer), MDA-MB-361-DYT2 (breast cancer)) or non-expressing (MDA-MB-468) cells were seeded in 96-well cell culture plates for 24 hours before treatment. Cells were treated with 3-fold serially diluted antibody-drug conjugates or free compounds (i.e., no antibody conjugated to the drug) in duplicate at 10 concentrations. Cell viability was determined by CellTiter 96® AQueous One Solution Cell Proliferation MTS Assay (Promega, Madison Wis.) 96 hours after treatment. Relative cell viability was determined as percentage of untreated control. IC50 values were calculated using a four parameter logistic model #203 with XLfit v4.2 (IDBS, Guildford, Surry, UK). The potency ranged upward from 0.0002 nm. Similar procedures and techniques were employed.

Assay [2] deals with MDA-MB-361-DYT2 (breast cancer) cells. Briefly: In vitro cell assay (MTS cell viability), MDA-MB-361-DYT2. The settings on record: free compounds (natural products and synthetic analogs), cell viability 96 hours after treatment. Here is the method:
as §1

Assay [3] has as its system BT474 (breast cancer) cells. In words: In vitro cell assay (MTS cell viability), BT474. The settings on record: free compounds (natural products and synthetic analogs); cell viability 96 hours after treatment. Here is the method:
as §1

`CC(=O)O[C@@H](C)/C=C\C(=O)N[C@@H]1C[C@H](C)[C@H](C/C=C(C)/C=C/[C@H]2O[C@H](CC(=O)N[C@H]3CC[C@H](N(C)C)CC3)C[C@@]3(CO3)[C@@H]2O)O[C@@H]1C` (relative stereo) [#B86, (2S,3Z)-5-{[(2R,3R,5S,6S)-6-{(2E,4E)-5-[(3R,4R,5R,7S)-7-(2-{[trans-4-(dimethylamino)cyclohexyl]amino}-2-oxoethyl)-4-hydroxy-1,6-dioxaspiro[2.5]oct-5-yl]-3-methylpenta-2,4-dien-1-yl}-2,5-dimethyltetrahydro-2H-pyran-3-yl]amino}-5-oxopent-3-en-2-yl acetate]: the IC50 – broadly, the concentration that inhibits the measured activity by half – is 14 nM in assay [1], 73.3 nM in assay [2] and 20.1 nM in assay [3].

For the compound `CC(/C=C/[C@@H]1C[C@]2(CO2)C[C@@H](CC(N)=O)O1)=C\C[C@@H]1O[C@H](C)[C@H](NC(=O)/C=C/C(C)N)C[C@@H]1C` (stereo partly drawn) [#B273, (2E)-4-amino-N-[(2R,3R,5S,6S)-6-{(2E,4E)-5-[(3S,5S,7S)-7-(2-amino-2-oxoethyl)-1,6-dioxaspiro[2.5]oct-5-yl]-3-methylpenta-2,4-dien-1-yl}-2,5-dimethyltetrahydro-2H-pyran-3-yl]pent-2-enamide], the half-maximal inhibitory concentration (IC50) in assay [1] was 600 nM; in assay [2] it was greater than 1000 nM.

`CCCNC(=O)C[C@]1(O)C[C@@]2(CO2)[C@H](O)[C@@H](/C=C/C(C)=C/C[C@@H]2O[C@H](C)[C@H](NC(=O)/C=C\[C@H](C)OC(C)=O)C[C@@H]2C)O1` [#B275, (2S,3Z)-5-({(2R,3R,5S,6S)-6-[(2E,4E)-5-{(3R,4R,5R,7S)-4,7-dihydroxy-7-[2-oxo-2-(propylamino)ethyl]-1,6-dioxaspiro[2.5]oct-5-yl}-3-methylpenta-2,4-dien-1-yl]-2,5-dimethyltetrahydro-2H-pyran-3-yl}amino)-5-oxopent-3-en-2-yl acetate]: the half-maximal inhibitory concentration (IC50) in assay [1] (96 h) is 5.33 nM; in assay [2] (96 h), 22.2 nM.

Turning to `COC(=O)C[C@@H]1C[C@@](O)(CCl)[C@H](O)[C@@H](/C=C/C(C)=C/C[C@@H]2O[C@H](C)[C@H](NC(=O)/C=C\[C@H](C)OC(C)=O)C[C@@H]2C)O1` [#B284, (1S,5R)-5-{(1E,3E)-5-[(2S,3S,5R,6R)-5-{[(2Z,4S)-4-(acetyloxy)pent-2-enoyl]amino}-3,6-dimethyltetrahydro-2H-pyran-2-yl]-3-methylpenta-1,3-dien-1-yl}-1,5-anhydro-3-C-(chloromethyl)-2-deoxy-1-(2-methoxy-2-oxoethyl)-D-erythro-pentitol], the IC50 in assay [1] (96 h) came out at 1.3 nM; in assay [2] (96 h) it was 2.03 nM.

As for `CCCNC(=O)C[C@@H]1C[C@@](O)(CCl)C[C@@H](/C=C/C(C)=C/C[C@@H]2O[C@H](C)[C@H](NC(=O)/C=C\[C@H](C)OC(C)=O)C[C@@H]2C)O1` [#B285, (2S,3Z)-5-({(2R,3R,5S,6S)-6-[(2E,4E)-5-{(2S,4S,6S)-4-(chloromethyl)-4-hydroxy-6-[2-oxo-2-(propylamino)ethyl]tetrahydro-2H-pyran-2-yl}-3-methylpenta-2,4-dien-1-yl]-2,5-dimethyltetrahydro-2H-pyran-3-yl}amino)-5-oxopent-3-en-2-yl acetate], the IC50 was determined as 7.61 nM in assay [1] (96 h) and 11.7 nM in assay [2] (96 h).

For the compound `CCCNC(=O)C[C@@H]1C[C@@](O)(CCl)[C@H](O)[C@@H](/C=C/C(C)=C/C[C@@H]2O[C@H](C)[C@H](NC(=O)/C=C\[C@H](C)OC(C)=O)C[C@@H]2C)O1` [#B286, (1S,5R)-5-{(1E,3E)-5-[(2S,3S,5R,6R)-5-{[(2Z,4S)-4-(acetyloxy)pent-2-enoyl]amino}-3,6-dimethyltetrahydro-2H-pyran-2-yl]-3-methylpenta-1,3-dien-1-yl}-1,5-anhydro-3-C-(chloromethyl)-2-deoxy-1-[2-oxo-2-(propylamino)ethyl]-D-erythro-pentitol], the IC50 in assay [1] (96 h) was 0.387 nM; in assay [2] (96 h) it was 1.11 nM.
